# Test results from patent publication US10280169B2, “Biaryl bruton's tyrosine kinase inhibitors” (BIOGEN MA INC., priority 2013, dated 2019).
# Target: T1, BTK (Homo sapiens, UniProt Q06187)
# T1 construct: purchased Upstate 14-552
# Experiment: In vitro BTK kinase assay: BTK-POLYGAT-LS assay
# Assay type: biochemical
# Settings: 10 uM ATP, read-out: IC50 (10 uMATP)
# T1 sequence (Q06187 whole entry): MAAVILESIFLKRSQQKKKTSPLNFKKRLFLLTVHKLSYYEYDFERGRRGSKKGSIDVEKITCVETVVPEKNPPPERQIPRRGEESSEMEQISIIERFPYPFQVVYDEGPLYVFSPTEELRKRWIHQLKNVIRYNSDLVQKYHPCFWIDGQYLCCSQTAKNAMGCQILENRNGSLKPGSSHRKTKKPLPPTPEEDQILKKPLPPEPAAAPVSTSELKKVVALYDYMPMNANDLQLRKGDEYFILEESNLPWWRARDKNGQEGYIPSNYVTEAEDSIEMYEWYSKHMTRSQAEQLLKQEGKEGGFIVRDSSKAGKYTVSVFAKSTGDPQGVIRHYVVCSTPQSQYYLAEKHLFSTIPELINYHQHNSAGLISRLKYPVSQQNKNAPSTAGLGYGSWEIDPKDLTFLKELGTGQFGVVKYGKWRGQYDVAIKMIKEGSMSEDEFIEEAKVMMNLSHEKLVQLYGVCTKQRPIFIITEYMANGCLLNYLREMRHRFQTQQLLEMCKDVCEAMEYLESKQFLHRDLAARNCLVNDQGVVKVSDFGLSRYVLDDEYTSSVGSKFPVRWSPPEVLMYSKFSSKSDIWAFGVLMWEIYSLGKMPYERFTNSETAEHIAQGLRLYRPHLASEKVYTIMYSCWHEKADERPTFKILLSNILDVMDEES
row,SMILES,IC50 [nM]
1,"Cn1cc(-c2cc3c(-c4ccc5c(c4)CCCCC5NC(=O)N4CC(OC(C)(C)C)C4)ncnc3[nH]2)cn1 (stereo not shown) [Example I-164, 3-(tert-butoxy)-N-(2-(6-(1-methyl-1H-pyrazol-4-yl)-7H-pyrrolo[2,3-d]pyrimidin-4-yl)-6,7,8,9-tetrahydro-5H-benzo[7]annulen-5-yl)azetidine-1-carboxamide]",< 10
2,"CC(C)(C)c1nnc(C(=O)NC2CCCc3cc(-c4ncnc5[nH]ncc45)ccc32)s1 (stereo not shown) [Example I-103, N-(6-(1H-pyrazolo[3,4-d]pyrimidin-4-yl)-1,2,3,4-tetrahydronaphthalen-1-yl)-5-(tert-butyl)-1,3,4-thiadiazole-2-carboxamide]",100 to 999
3,"Cc1cc(-c2ncnc3nc(C4CCN(C)CC4)[nH]c23)ccc1CNC(=O)c1cnc(C(C)(C)C)s1 [Example I-54, 2-(tert-butyl)-N-(2-methyl-4-(8-(1-methylpiperidin-4-yl)-7H-purin-6-yl)benzyl)thiazole-5-carboxamide]",100 to 999
4,"O=C(NCc1ccc(-c2ncnc3[nH]ccc23)cc1)c1cn2c(n1)CCC2 [Example I-59, N-(4-(7H-pyrrolo[2,3-d]pyrimidin-4-yl)benzyl)-6,7-dihydro-5H-pyrrolo[1,2-a]imidazole-2-carboxamide]",1000 to 10000
5,"CC(C)(C)c1ccc(C(=O)NC2CCc3cc(-c4ncnc5[nH]ccc45)ccc32)cc1 (stereo not shown) [Example I-154, N-(5-(7H-pyrrolo[2,3-d]pyrimidin-4-yl)-2,3-dihydro-1H-inden-1-yl)-4-(tert-butyl)benzamide]",> 10000
6,"Cn1c(C(=O)NC2CCCc3cc(-c4ncnc5[nH]ncc45)ccc32)nc2ccccc21 (stereo not shown) [Example I-101, N-(6-(1H-pyrazolo[3,4-d]pyrimidin-4-yl)-1,2,3,4-tetrahydronaphthalen-1-yl)-1-methyl-1H-benzo[d]imidazole-2-carboxamide]",100 to 999
7,"O=C(NCc1ccc(-c2ncnc3[nH]ccc23)cc1)c1cc(C(F)(F)F)c(Cl)cn1 [Example I-63, N-(4-(7H-pyrrolo[2,3-d]pyrimidin-4-yl)benzyl)-5-chloro-4-(trifluoromethyl)picolinamide]",1000 to 10000
8,"Cn1cc(-c2cc3c(-c4ccc5c(c4)CCCC5NC(=O)N4CC(OC(C)(C)C)C4)ncnc3[nH]2)cn1 (stereo not shown) [Example I-159, 3-(tert-butoxy)-N-(6-(6-(1-methyl-1H-pyrazol-4-yl)-7H-pyrrolo[2,3-d]pyrimidin-4-yl)-1,2,3,4-tetrahydronaphthalen-1-yl)azetidine-1-carboxamide]",< 10
9,O=C(NCc1ccc(-c2ncnc3[nH]ccc23)cc1)c1ccc(C(F)(F)F)cn1 [Compound I-146],100 to 999
10,"O=C(NCc1ccc(-c2ncnc3[nH]ccc23)cc1)C1Cc2ccccc2C1 [Example I-60, N-(4-(7H-pyrrolo[2,3-d]pyrimidin-4-yl)benzyl)-2,3-dihydro-1H-indene-2-carboxamide]",> 10000
11,"CC(C)(C)c1ccc(C(=O)NCc2ccc(-c3ncnc4[nH]ccc34)cc2)cn1 [Example I-67, N-(4-(7H-pyrrolo[2,3-d]pyrimidin-4-yl)benzyl)-6-(tert-butyl)nicotinamide]",100 to 999
12,"CC(C)(C)c1ccnc(C(=O)NC2CCCc3cc(-c4ncnc5[nH]ncc45)ccc32)c1 (stereo not shown) [Example I-150, N-(6-(1H-pyrazolo[3,4-d]pyrimidin-4-yl)-1,2,3,4-tetrahydronaphthalen-1-yl)-4-(tert-butyl)picolinamide]",1000 to 10000
13,"CC(C)c1csc(C(=O)NC2CCCc3cc(-c4ncnc5[nH]ncc45)ccc32)n1 (stereo not shown) [Example I-96, N-(6-(1H-pyrazolo[3,4-d]pyrimidin-4-yl)-1,2,3,4-tetrahydronaphthalen-1-yl)-4-isopropylthiazole-2-carboxamide]",10 to 99
14,"CC(C)(C)c1ccc(C(=O)NC2CCCc3cc(-c4ncnc5[nH]ncc45)ccc32)cn1 (stereo not shown) [Example I-142, N-(6-(1H-pyrazolo[3,4-d]pyrimidin-4-yl)-1,2,3,4-tetrahydronaphthalen-1-yl)-6-(tert-butyl)nicotinamide]",100 to 999
15,"CCc1cc(-c2ncnc3[nH]ccc23)ccc1CNC(=O)c1ccc(C(C)(C)C)cc1 [Example I-10, 4-(tert-butyl)-N-(2-ethyl-4-(7H-pyrrolo[2,3-d]pyrimidin-4-yl)benzyl)benzamide]",10 to 99

# Next, values leading:
row,IC50 [nM],SMILES
1,10 to 99,"CC(C)(C)c1ccc(C(=O)NC2CCCc3cc(-c4ncnc5[nH]ccc45)ccc32)nc1 (stereo not shown) [Example I-15, N-(6-(7H-pyrrolo[2,3-d]pyrimidin-4-yl)-1,2,3,4-tetrahydronaphthalen-1-yl)-5-(tert-butyl)picolinamide]"
2,10 to 99,"O=C(NC1CCCc2cc(-c3ncnc4[nH]ncc34)ccc21)c1nc2c(s1)CCC2 (stereo not shown) [Example I-130, N-(6-(1H-pyrazolo[3,4-d]pyrimidin-4-yl)-1,2,3,4-tetrahydronaphthalen-1-yl)-5,6-dihydro-4H-cyclopenta[d]thiazole-2-carboxamide]"
3,10 to 99,"CC(C)(C)c1ccc(C(=O)NCc2ccc(-c3ncnc4[nH]ccc34)cc2C#N)nc1 [Example I-6, 5-(tert-butyl)-N-(2-cyano-4-(7H-pyrrolo[2,3-d]pyrimidin-4-yl)benzyl)picolinamide]"
4,10 to 99,"O=C(NC1CCCc2cc(-c3ncnc4[nH]ncc34)ccc21)c1nc2c(s1)CCCC2 (stereo not shown) [Example I-137, N-(6-(1H-pyrazolo[3,4-d]pyrimidin-4-yl)-1,2,3,4-tetrahydronaphthalen-1-yl)-4,5,6,7-tetrahydrobenzo[d]thiazole-2-carboxamide]"
5,10 to 99,"Cc1cc(-c2ncnc3[nH]ncc23)ccc1C(C)NC(=O)c1cnc(C(C)(C)C)s1 (stereo not shown) [Example I-128, 2-(tert-butyl)-N-(1-(2-methyl-4-(1H-pyrazolo[3,4-d]pyrimidin-4-yl)phenyl)ethyl)thiazole-5-carboxamide]"
6,10 to 99,"CC(C)(C)c1ncc(C(=O)NC2CCCc3cc(-c4ncnc5cc[nH]c45)ccc32)s1 (stereo not shown) [Example I-129, N-(6-(5H-pyrrolo[3,2-d]pyrimidin-4-yl)-1,2,3,4-tetrahydronaphthalen-1-yl)-2-(tert-butyl)thiazole-5-carboxamide]"
7,10 to 99,"CC1(C)CCc2nc(C(=O)NC3CCCc4cc(-c5ncnc6[nH]ncc56)ccc43)sc2C1 (stereo not shown) [Example I-136, N-(6-(1H-pyrazolo[3,4-d]pyrimidin-4-yl)-1,2,3,4-tetrahydronaphthalen-1-yl)-6,6-dimethyl-4,5,6,7-tetrahydrobenzo[d]thiazole-2-carboxamide]"
8,< 10,"Cc1cc(-c2ncnc3[nH]ccc23)ccc1C(C)NC(=O)c1nc2c(s1)CCCC2 (stereo not shown) [Example I-77, N-(1-(2-methyl-4-(7H-pyrrolo[2,3-d]pyrimidin-4-yl)phenyl)ethyl)-4,5,6,7-tetrahydrobenzo[d]thiazole-2-carboxamide]"
9,< 10,"Cc1cc(-c2ncnc3nc(N4CCC(C(=O)O)C4)[nH]c23)ccc1CNC(=O)c1cnc(C(C)(C)C)s1 (stereo not shown) [Example I-51, 1-(6-(4-((2-(tert-butyl)thiazole-5-carboxamido)methyl)-3-methylphenyl)-7H-purin-8-yl)pyrrolidine-3-carboxylic acid]"
10,10 to 99,"CC(C)(C)c1ccc(C(=O)NCc2ccc(-c3ncnc4[nH]ccc34)cc2Cl)nc1 [Example I-5, 5-(tert-butyl)-N-(2-chloro-4-(7H-pyrrolo[2,3-d]pyrimidin-4-yl)benzyl)picolinamide]"
11,10 to 99,"Cc1cc(-c2ncnc3nc(N4CCCC4C(=O)O)[nH]c23)ccc1CNC(=O)c1cnc(C(C)(C)C)s1 (stereo not shown) [Example I-55, 1-(6-(4-((2-(tert-butyl)thiazole-5-carboxamido)methyl)-3-methylphenyl)-7H-purin-8-yl)pyrrolidine-2-carboxylic acid]"
12,10 to 99,"CC(NC(=O)c1cc2c(s1)CCCC2)c1ccc(-c2ncnc3[nH]ncc23)cc1C(F)(F)F (stereo not shown) [Example I-135, N-(1-(4-(1H-pyrazolo[3,4-d]pyrimidin-4-yl)-2-(trifluoromethyl)phenyl)ethyl)-4,5,6,7-tetrahydrobenzo[b]thiophene-2-carboxamide]"
13,< 10,"Cn1cc(-c2cc3c(-c4ccc5c(c4)CCCCC5NC(=O)c4cnc(C(C)(C)C)s4)ncnc3[nH]2)cn1 (stereo not shown) [Example I-161, 2-(tert-butyl)-N-(2-(6-(1-methyl-1H-pyrazol-4-yl)-7H-pyrrolo[2,3-d]pyrimidin-4-yl)-6,7,8,9-tetrahydro-5H-benzo[7]annulen-5-yl)thiazole-5-carboxamide]"
14,< 10,"Cc1cc(-c2ncnc3[nH]c(-c4cnn(C)c4)cc23)ccc1CNC(=O)c1cc2c(s1)CCOC2 [Example I-33, N-(2-methyl-4-(6-(1-methyl-1H-pyrazol-4-yl)-7H-pyrrolo[2,3-d]pyrimidin-4-yl)benzyl)-6,7-dihydro-4H-thieno[3,2-c]pyran-2-carboxamide]"
15,10 to 99,"Cc1cc(-c2ncnc3nc(N4CCN(C)CC4)sc23)ccc1CNC(=O)c1cnc(C(C)(C)C)s1 [Example I-133, 2-(tert-butyl)-N-(2-methyl-4-(2-(4-methylpiperazin-1-yl)thiazolo[4,5-d]pyrimidin-7-yl)benzyl)thiazole-5-carboxamide]"
16,< 10,"CC(C)(C)c1csc(C(=O)N[C@@H]2CCCc3cc(-c4ncnc5[nH]ncc45)ccc32)n1 [Example I-99, (R)—N-(6-(1H-pyrazolo[3,4-d]pyrimidin-4-yl)-1,2,3,4-tetrahydronaphthalen-1-yl)-4-(tert-butyl)thiazole-2-carboxamide]"
17,10 to 99,"O=C(NCc1ncc(-c2ccnc3[nH]ncc23)cc1F)c1cc2c(s1)CCCC2 [Example I-110, N-((3-fluoro-5-(1H-pyrazolo[3,4-b]pyridin-4-yl)pyridin-2-yl)methyl)-4,5,6,7-tetrahydrobenzo[b]thiophene-2-carboxamide]"
18,< 10,"Cc1cc(-c2ncnc3nc(N4CCC(N(C)C)C4)[nH]c23)ccc1CNC(=O)c1cnc(C(C)(C)C)s1 (stereo not shown) [Example I-50, 2-(tert-butyl)-N-(4-(8-(3-(dimethylamino)pyrrolidin-1-yl)-7H-purin-6-yl)-2-methylbenzyl)thiazole-5-carboxamide]"
19,< 10,"Cc1cc(-c2ncnc3cc(-c4cnn(C)c4)n(C)c23)ccc1CNC(=O)c1cnc(C(C)(C)C)s1 [Example I-38, 2-(tert-butyl)-N-(2-methyl-4-(5-methyl-6-(1-methyl-1H-pyrazol-4-yl)-5H-pyrrolo[3,2-d]pyrimidin-4-yl)benzyl)thiazole-5-carboxamide]"
